Data as given in the kinase profiling compilation of Christmann-Franck et al. (2016).

Key:
Experiment in all cases: radiometric filter-binding kinase assay
[1] = tested on: AKT1 (human), P31749 [S473D]
[2] = molecular target: BRSK2 (human) (UniProt Q8IWQ3)
[3] = molecular target: CLK2 (human) (UniProt P49760)
[4] = molecular target: CSNK2A1 (human) (UniProt P68400)
[5] = molecular target: DAPK1 (human) (UniProt P53355)
[6] = molecular target: DYRK1A (human) (UniProt Q13627)
[7] = molecular target: DYRK3 (human) (UniProt O43781)
Sequence of DYRK3 (human) (O43781 whole entry, looked up): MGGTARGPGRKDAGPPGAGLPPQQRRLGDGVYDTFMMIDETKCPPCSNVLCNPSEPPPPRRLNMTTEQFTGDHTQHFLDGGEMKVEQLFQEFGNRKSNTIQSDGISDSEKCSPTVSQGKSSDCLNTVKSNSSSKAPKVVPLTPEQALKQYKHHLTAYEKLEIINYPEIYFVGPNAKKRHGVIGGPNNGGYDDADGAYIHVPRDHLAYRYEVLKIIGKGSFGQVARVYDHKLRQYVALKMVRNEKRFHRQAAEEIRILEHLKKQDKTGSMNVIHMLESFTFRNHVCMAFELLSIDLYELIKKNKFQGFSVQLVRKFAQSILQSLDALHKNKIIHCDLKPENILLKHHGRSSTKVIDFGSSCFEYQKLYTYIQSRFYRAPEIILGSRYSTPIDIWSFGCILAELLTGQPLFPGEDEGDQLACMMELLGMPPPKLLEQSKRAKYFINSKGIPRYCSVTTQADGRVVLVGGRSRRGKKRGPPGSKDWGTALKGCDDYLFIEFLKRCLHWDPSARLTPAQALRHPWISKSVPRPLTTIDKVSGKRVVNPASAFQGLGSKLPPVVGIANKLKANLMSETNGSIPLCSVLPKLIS

[8] = molecular target: EPHB3 (human) (UniProt P54753); settings: compound 0.1 µM
[9] = molecular target: IKBKB (human) (UniProt O14920)
[10] = molecular target: IKBKE (human) (UniProt Q14164)
[11] = molecular target: IRAK4 (human) (UniProt Q9NWZ3)
[12] = molecular target: MAP2K6 (human) (UniProt P52564)
[13] = molecular target: MAP3K11 (human) (UniProt Q16584)
[14] = molecular target: MAP3K7 TAB1 (human) (UniProt Q15750+O43318)
Sequence of MAP3K7 TAB1 (human) (O43318 whole entry, looked up): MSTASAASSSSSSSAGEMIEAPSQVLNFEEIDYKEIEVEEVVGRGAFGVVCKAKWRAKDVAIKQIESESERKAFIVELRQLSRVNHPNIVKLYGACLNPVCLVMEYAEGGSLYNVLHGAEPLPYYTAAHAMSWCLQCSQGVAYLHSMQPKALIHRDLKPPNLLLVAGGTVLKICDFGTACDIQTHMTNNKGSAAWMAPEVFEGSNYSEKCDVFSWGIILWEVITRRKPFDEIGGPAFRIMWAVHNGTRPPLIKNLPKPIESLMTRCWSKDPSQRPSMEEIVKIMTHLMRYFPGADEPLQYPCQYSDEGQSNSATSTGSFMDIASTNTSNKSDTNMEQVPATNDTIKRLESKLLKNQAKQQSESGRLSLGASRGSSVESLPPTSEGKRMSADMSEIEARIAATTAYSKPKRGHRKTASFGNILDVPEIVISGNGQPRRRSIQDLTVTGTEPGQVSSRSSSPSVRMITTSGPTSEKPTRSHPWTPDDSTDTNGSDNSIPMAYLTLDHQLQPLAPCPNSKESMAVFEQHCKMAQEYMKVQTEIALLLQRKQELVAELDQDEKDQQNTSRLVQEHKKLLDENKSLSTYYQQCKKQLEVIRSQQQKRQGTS
Sequence of MAP3K7 TAB1 (human) (Q15750 whole entry, looked up): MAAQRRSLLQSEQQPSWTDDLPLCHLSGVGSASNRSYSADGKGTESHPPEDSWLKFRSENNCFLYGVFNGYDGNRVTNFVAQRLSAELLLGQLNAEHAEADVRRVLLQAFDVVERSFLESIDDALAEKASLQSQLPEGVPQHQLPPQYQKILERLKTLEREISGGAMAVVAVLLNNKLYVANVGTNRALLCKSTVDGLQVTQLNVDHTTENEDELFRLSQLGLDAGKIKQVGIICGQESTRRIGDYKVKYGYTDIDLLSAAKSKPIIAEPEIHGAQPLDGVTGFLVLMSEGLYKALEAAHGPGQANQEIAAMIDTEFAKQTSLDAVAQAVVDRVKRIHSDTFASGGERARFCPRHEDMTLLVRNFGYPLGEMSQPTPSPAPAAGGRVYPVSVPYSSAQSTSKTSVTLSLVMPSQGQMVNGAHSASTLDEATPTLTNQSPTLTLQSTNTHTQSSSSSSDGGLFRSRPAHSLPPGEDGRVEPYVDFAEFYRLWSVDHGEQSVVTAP

[15] = molecular target: MAPK11 (human) (UniProt Q15759)
[16] = molecular target: MAPK12 (human) (UniProt P53778)
[17] = molecular target: MAPK14 (human) (UniProt Q16539)
[18] = molecular target: MAPK3 (human) (UniProt P27361)
[19] = molecular target: MAPK8 (human) (UniProt P45983)
[20] = molecular target: MAPKAPK3 (human) (UniProt Q16644)
[21] = molecular target: MAPKAPK5 (human) (UniProt Q8IW41)
[22] = molecular target: MKNK2 (human) (UniProt Q9HBH9); settings: compound 0.1 µM
[23] = molecular target: NTRK1 (human) (UniProt P04629); settings: compound 1.0 µM
[24] = molecular target: PAK4 (human) (UniProt O96013)
[25] = molecular target: PIM1 (human) (UniProt P11309)
Sequence of PIM1 (human) (P11309 whole entry, looked up): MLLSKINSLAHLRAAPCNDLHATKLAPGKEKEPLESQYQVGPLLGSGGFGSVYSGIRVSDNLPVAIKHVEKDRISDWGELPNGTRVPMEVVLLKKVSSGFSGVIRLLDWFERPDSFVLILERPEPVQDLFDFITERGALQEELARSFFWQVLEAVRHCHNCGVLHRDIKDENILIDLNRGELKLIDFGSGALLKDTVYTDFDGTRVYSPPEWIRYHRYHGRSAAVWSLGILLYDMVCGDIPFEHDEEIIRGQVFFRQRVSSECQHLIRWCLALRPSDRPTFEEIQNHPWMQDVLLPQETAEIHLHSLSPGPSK

[26] = molecular target: PIM2 (human) (UniProt Q9P1W9)
[27] = molecular target: PIM3 (human) (UniProt Q86V86)
[28] = molecular target: PLK1 (human) (UniProt P53350)
[29] = tested on: ROCK2 (rat); settings: accession and sequence are those of the human protein
[30] = molecular target: RPS6KA3 KD1 KD2 (human) (UniProt P51812)
[31] = tested on: RPS6KB1 (human), P23443 [T412E]
Sequence of RPS6KB1 (human), P23443 [T412E] (P23443 whole entry T412E, looked up): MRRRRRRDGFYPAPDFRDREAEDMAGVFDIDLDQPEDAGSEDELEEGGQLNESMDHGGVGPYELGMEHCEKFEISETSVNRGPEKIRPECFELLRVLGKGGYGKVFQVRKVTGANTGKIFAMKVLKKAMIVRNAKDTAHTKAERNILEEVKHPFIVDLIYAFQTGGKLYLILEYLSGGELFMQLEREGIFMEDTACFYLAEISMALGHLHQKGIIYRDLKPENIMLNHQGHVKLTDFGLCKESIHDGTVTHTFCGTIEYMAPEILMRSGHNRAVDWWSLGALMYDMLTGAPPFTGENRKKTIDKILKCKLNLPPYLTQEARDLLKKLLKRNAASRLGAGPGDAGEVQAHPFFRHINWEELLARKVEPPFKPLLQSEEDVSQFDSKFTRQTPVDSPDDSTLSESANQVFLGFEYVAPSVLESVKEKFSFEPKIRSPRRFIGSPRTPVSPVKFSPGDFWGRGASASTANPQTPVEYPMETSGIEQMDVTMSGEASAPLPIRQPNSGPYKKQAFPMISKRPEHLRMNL

[32] = tested on: SGK1 (human), O00141 [S422D]; settings: compound 1.0 µM
[33] = molecular target: STK3 (human) (UniProt Q13188)
[34] = molecular target: TBK1 (human) (UniProt Q9UHD2)
Sequence of TBK1 (human) (Q9UHD2 whole entry, looked up): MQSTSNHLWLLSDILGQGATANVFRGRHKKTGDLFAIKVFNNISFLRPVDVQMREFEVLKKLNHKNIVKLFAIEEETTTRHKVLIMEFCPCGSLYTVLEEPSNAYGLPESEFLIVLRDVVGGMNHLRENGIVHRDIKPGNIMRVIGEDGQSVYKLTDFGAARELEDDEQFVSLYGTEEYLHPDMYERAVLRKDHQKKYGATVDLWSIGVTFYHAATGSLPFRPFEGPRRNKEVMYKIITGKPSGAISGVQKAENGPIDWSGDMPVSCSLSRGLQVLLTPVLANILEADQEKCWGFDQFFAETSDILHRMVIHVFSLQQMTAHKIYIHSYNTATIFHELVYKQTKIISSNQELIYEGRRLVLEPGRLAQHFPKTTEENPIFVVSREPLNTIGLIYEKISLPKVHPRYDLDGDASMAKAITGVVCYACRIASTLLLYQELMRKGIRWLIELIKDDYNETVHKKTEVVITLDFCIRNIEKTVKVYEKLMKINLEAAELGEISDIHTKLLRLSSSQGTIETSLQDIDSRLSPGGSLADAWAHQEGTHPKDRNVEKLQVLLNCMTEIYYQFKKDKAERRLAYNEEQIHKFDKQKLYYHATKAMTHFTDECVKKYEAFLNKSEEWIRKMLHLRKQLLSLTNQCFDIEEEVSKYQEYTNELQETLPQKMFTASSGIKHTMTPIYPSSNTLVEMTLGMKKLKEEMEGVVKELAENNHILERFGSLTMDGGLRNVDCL

Sequence of BRSK2 (human) (Q8IWQ3 whole entry, looked up): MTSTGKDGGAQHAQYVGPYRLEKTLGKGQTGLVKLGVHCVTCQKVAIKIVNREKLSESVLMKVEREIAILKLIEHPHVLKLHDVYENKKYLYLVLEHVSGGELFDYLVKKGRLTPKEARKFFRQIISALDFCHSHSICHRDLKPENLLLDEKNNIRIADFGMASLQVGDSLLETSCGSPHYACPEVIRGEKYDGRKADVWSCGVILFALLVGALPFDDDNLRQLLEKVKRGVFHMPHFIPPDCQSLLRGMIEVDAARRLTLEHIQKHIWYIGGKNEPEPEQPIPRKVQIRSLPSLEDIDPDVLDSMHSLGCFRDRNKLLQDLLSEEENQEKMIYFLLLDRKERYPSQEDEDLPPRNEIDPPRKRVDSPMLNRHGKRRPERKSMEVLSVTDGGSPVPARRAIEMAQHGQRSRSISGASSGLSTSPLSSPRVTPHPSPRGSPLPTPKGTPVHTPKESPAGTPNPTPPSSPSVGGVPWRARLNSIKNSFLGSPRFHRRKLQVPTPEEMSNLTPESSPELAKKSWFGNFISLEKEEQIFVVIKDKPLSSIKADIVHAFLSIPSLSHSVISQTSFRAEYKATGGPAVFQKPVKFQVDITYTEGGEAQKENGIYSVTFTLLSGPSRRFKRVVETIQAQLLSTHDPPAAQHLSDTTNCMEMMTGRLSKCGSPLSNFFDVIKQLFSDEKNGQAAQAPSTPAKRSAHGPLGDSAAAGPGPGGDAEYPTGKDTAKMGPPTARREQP
Sequence of CSNK2A1 (human) (P68400 whole entry, looked up): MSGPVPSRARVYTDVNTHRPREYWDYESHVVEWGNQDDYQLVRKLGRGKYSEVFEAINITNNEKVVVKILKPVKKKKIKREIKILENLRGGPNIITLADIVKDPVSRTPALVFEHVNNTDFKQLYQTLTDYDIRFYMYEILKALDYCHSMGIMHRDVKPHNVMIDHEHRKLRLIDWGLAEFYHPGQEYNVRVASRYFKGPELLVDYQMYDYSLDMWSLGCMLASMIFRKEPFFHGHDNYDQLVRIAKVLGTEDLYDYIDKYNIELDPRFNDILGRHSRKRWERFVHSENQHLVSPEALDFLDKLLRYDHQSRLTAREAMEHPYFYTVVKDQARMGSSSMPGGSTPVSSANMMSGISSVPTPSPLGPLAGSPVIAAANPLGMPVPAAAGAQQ

CN(C)C/C=C/C(=O)Nc1cccc(C(=O)Nc2ccc(Nc3nccc(-c4cccnc4)n3)cc2)c1
residual activity ([1]; compound 0.1 µM): 92%
residual activity ([1]; compound 1.0 µM): 104%
residual activity ([2]; compound 0.1 µM): 82%
residual activity ([2]; compound 1.0 µM): 76%
residual activity ([3]; compound 0.1 µM): 49%
residual activity ([3]; compound 1.0 µM): 18%
residual activity ([4]; compound 0.1 µM): 80%
residual activity ([4]; compound 1.0 µM): 81%
residual activity ([5]; compound 0.1 µM): 90%
residual activity ([5]; compound 1.0 µM): 83%
residual activity ([6]; compound 0.1 µM): 97%
residual activity ([6]; compound 1.0 µM): 85%
residual activity ([7]; compound 0.1 µM): 81%
residual activity ([7]; compound 1.0 µM): 79%
residual activity [8]: 101%
residual activity ([9]; compound 0.1 µM): 76%
residual activity ([9]; compound 1.0 µM): 63%
residual activity ([10]; compound 0.1 µM): 97%
residual activity ([10]; compound 1.0 µM): 98%
residual activity ([11]; compound 0.1 µM): 86%
residual activity ([11]; compound 1.0 µM): 88%
residual activity ([12]; compound 0.1 µM): 97%
residual activity ([12]; compound 1.0 µM): 91%
residual activity ([13]; compound 0.1 µM): 79%
residual activity ([13]; compound 1.0 µM): 59%
residual activity ([14]; compound 0.1 µM): 67%
residual activity ([14]; compound 1.0 µM): 39%
residual activity ([15]; compound 0.1 µM): 96%
residual activity ([15]; compound 1.0 µM): 82%
residual activity ([16]; compound 0.1 µM): 90%
residual activity ([16]; compound 1.0 µM): 103%
residual activity ([17]; compound 0.1 µM): 98%
residual activity ([17]; compound 1.0 µM): 113%
residual activity ([18]; compound 0.1 µM): 110%
residual activity ([18]; compound 1.0 µM): 109%
residual activity ([19]; compound 0.1 µM): 9%
residual activity ([19]; compound 1.0 µM): 4%
residual activity ([20]; compound 0.1 µM): 104%
residual activity ([20]; compound 1.0 µM): 101%
residual activity ([21]; compound 0.1 µM): 96%
residual activity ([21]; compound 1.0 µM): 85%
residual activity [22]: 92%
residual activity [23]: 82%
residual activity ([24]; compound 0.1 µM): 84%
residual activity ([24]; compound 1.0 µM): 66%
residual activity ([25]; compound 0.1 µM): 97%
residual activity ([25]; compound 1.0 µM): 114%
residual activity ([26]; compound 0.1 µM): 96%
residual activity ([26]; compound 1.0 µM): 102%
residual activity ([27]; compound 0.1 µM): 97%
residual activity ([27]; compound 1.0 µM): 84%
residual activity ([28]; compound 0.1 µM): 91%
residual activity ([28]; compound 1.0 µM): 106%
residual activity ([29]; compound 0.1 µM): 89%
residual activity ([29]; compound 1.0 µM): 71%
residual activity ([30]; compound 0.1 µM): 80%
residual activity ([30]; compound 1.0 µM): 80%
residual activity ([31]; compound 0.1 µM): 88%
residual activity ([31]; compound 1.0 µM): 112%
residual activity [32]: 105%
residual activity ([33]; compound 0.1 µM): 83%
residual activity ([33]; compound 1.0 µM): 64%
residual activity ([34]; compound 0.1 µM): 77%
residual activity ([34]; compound 1.0 µM): 79%
